Data on 89 molecules can be found in a melting point compilation (Tetko et al.; mined from patent text by program, amines drawn as free bases though some values may be those of a salt).

In the case of `CCCc1c(OCC2Cc3cc(CC(=O)OC)cc(F)c3O2)ccc(C(C)=O)c1O` (centres undefined), the melting point – broadly, the temperature, or range, at which the solid turns liquid – lay in the range of 80 to 82 °C. Then `Cn1c(C(F)(F)F)cc(=O)n(-c2cc(OCS(C)=O)c(Cl)cc2F)c1=O` (centres undefined), with 178 to 179 °C; and `Nc1ncnc2c1ncn2Cc1oc2ccccc2c(=O)c1-c1ccccc1F`, with 202 to 205 °C; and `N#CC(C(=O)Nc1ccccc1)C(=O)c1ccc[nH]1` (centres undefined), with 207 to 209 °C. For `CCC1(C2CCN(c3ncnc4cc(OC)c(OC)cc34)CC2)CO1` (centres undefined), the melting point fell in the range of 138 to 139 °C.

`CC(C)Cn1c(=O)n(C)c(=O)c2c(SCCCC(=O)O)n(Cc3cccc4ccccc34)nc21`: the melting point worked out at 149 °C. `CC1OC(=O)C(c2cccc(C(F)(F)F)c2)=C1O` (centres undefined): the melting point amounted to 175 °C. `CCC(CC)c1ccc(Cl)c2nc3n(c12)CCCCN3c1cnc(N2CCCC2)cc1C` returned a melting point of 160 to 161 °C. Molecule `C[C@@H]1CC(=O)O[C@H](CCc2ccccc2)O1` yielded a melting point of 49.7 to 50.9 °C. Take `CC(C)(C)C(=O)Nc1nc(O)c2cc(C=CCOC3CCCCO3)cnc2n1` (centres undefined): the melting point was in the range of 166 to 167 °C. In the case of `CCCCCCCCCCCCCCCCCCOC(=O)CCCCCCCCCCCCCCCCC` it was 47 to 55 °C. Molecule `CCCCCCCCCCCCCCCC(=O)NCCCC[C@H](N)C(=O)O` gave a melting point of 240 to 245 °C. Turning to `CSc1cc2c(cc1C(F)(F)F)N(C(=O)Nc1ccc(-c3csc(-c4ccncc4)n3)cc1)CC2`, the melting point was in the range of 253 to 254 °C.

Take `CON(C)C(=O)[C@H]1CC[C@H](NC(=O)OC(C)(C)C)CC1`: the melting point was in the range of 130 to 140 °C. Turning to `Nc1c(Cl)cc(Cl)c(-c2nsc(C(F)(F)F)c2Cl)c1Br`, the melting point lay within 77 to 78 °C. Take `C/C(=N\OC(=O)c1ccc(CN2CCOCC2)cc1)[C@H]1CC[C@H]2[C@@H]3CCC4=CC(=O)CC[C@]4(C)[C@H]3CC[C@]12C`: the melting point lay within 166 to 168 °C.

`Cc1c(-c2ccccc2)n(-c2ccc(F)cc2)c(-c2ccccc2)cc1=O` gave a melting point of 256 to 259 °C. As for `CC(=O)Nc1ccccc1-c1nc(C)c(-c2cccnc2)[nH]1`, the melting point was 270 to 271 °C. For the molecule `Cc1c(NC(=O)CC(C)(C)C)cc2c(c1C)OC(C)(C)C2(O)c1ccc(Br)cc1` (centres undefined), the melting point lay in the range of 118 to 119 °C. Molecule `Cn1c(=O)c2c(nc(C=Cc3cccc([N+](=O)[O-])c3)n2C)n(C)c1=O` registered a melting point of 306 to 308 °C. `CCCCCN(C(=O)Nc1ccc2c(c1)C(C)(C)CCC2(C)C)c1ccc(C(=O)O)cc1`: the melting point was 201 to 202 °C. For `COc1ccc(S(=O)(=O)C2(C(=O)O)CCN(C)CC2)cc1`, the melting point came to 204 °C.

In the case of `O=C(O)c1ccc(OCCCCCCC2CC2)c(F)c1F`, the melting point lay in the range of 100 to 108 °C. In the case of `COc1ccc(S)c(Cl)c1Cl` it was 81.5 to 83 °C; in that of `NC(=O)N(c1ccc(C(F)(F)F)cc1)c1nc(Cl)cc(Cl)n1`, 99 to 101 °C; in that of `COc1ccc(CCc2ccncc2N)cc1OC1CCCC1`, 108 to 110 °C. Then `Cc1cc(C)cc(NS(=O)(=O)c2ccc(N3CCNC3=O)cc2)c1`, with 216 to 218 °C. For the molecule `CC(C)(C)OC(=O)N[C@@H]1CN[C@H]2CCO[C@H]21` (relative stereo), the melting point lay in the range of 110 to 111 °C. As for `CC(C)N1CCC(Nc2cccnc2)CC1`, the melting point was 101 °C. Turning to `CC1(C)CC(NC(=O)C(=O)NNC(=O)COc2ccc(C(=O)c3ccccc3)c(O)c2)CC(C)(C)N1`, the melting point lay in the range of 191 to 195 °C. In the case of `O=C(OCc1ccc(Cl)cc1)c1ncn2c1[C@@H]1CCCN1C(=O)c1c(Cl)cccc1-2`, the melting point lay in the range of 183 to 184 °C. In the case of `O=C(O)CCc1ccc(NS(=O)(=O)c2ccc(Cl)cc2)cn1` it was 144 to 146 °C. With `CC(=O)S[C@@H](CCN1C(=O)CCC1=O)C(=O)O`, the melting point was 110 to 112 °C. Take `CCN(CC)c1ccc(C2OC(=O)c3cc(N(C)C)ccc32)c(C)c1` (centres undefined): the melting point was in the range of 123 to 125 °C. Then `O=C(NCCc1ccc(Cl)cc1)C1=C(NCCc2ccc(Cl)cc2)CS(=O)(=O)N(Cc2ccc(Cl)c(Cl)c2)c2ccccc21`, with 119 to 121 °C; and `CNC(=S)N1CCc2[nH]cnc2C1c1cccs1` (centres undefined), with 215 °C; and `CS(=O)(=O)c1cccc(S(C)(=O)=O)n1`, with 192 to 195 °C. The molecule `C[Si](C)(C)C#Cc1ccc(-n2c(-c3ccccc3)ccc2-c2ccccc2)cc1` displayed a melting point of 183 to 184 °C.

As to `O=C(OCc1ccccc1)c1cc(Br)c(OCc2ccccc2)cc1OCc1ccccc1`, the melting point was 74 to 76 °C. Molecule `Cc1cc2nnc(C)n2nc1-c1ccc(C#N)cc1` displayed a melting point of 242 to 244 °C. Then `O=C(O)COc1cc(Cl)ccc1C(=O)NCc1ccc(OC(F)(F)F)cc1`, with 184 to 185 °C; and `Cc1cc(C)nc(NC(=O)NS(=O)(=O)C2CC3C=CC2O3)n1` (centres undefined), with 125 to 145 °C. Molecule `CCCCCCCCCCCCCCCCCCCCCCNc1cc(N)c([N+](=O)[O-])cc1[N+](=O)[O-]` displayed a melting point of 108 to 110 °C. As for `O=C(c1c[nH]c2nc(Cl)ccc12)N1CCN2CCC1CC2`, the melting point was in the range of 228 to 229 °C.

`CSc1ccc(-c2coc3ccc(-c4nnc(C)o4)cc23)cc1OC(F)(F)F`: the melting point lay within 185 to 186 °C. As to `NC(C=Cc1cccc(Cl)c1)=NO`, the melting point was in the range of 195 to 197 °C.

The molecule `O=C(O)CCCC=C(c1cccnc1)c1cccc(NC(=S)Nc2ccc(Cl)cc2Cl)c1` registered a melting point of 154 to 155 °C.

For `CN(Cc1cccc2c1C(=O)N(C1CCC(=O)NC1=O)C2=O)C(=O)Nc1ccc(Cl)cc1` (centres undefined), the melting point lay in the range of 279 to 281 °C. `Nc1ccc(S(=O)(=O)c2cc(-c3cccc([N+](=O)[O-])c3)nc(N3CCCC3)c2)cc1`: the melting point lay within 249 to 251 °C.

Consider `COC(=O)c1ccccc1S(=O)(=O)NC(=O)Nc1ncc(C)n(C)c1=O`, for which the melting point fell in the range of 192 to 193 °C.

Regarding `CCC(=O)NC1CCc2c([nH]c3ccccc23)C1` (centres undefined), the melting point is 169 to 170 °C. In the case of `C=CCC(NC(=O)c1ccc(OC)cc1)C(C)=O` (centres undefined) it was 58 to 59 °C; in that of `OC1(c2ccc(Cl)c(Cl)c2)CCNCC1`, 144 to 146 °C. In turn, `CC(=Cc1ccccc1)c1ccc2c(c1)S(=O)(=O)CCC2(C)C` yielded a melting point of 148 to 150 °C. As for `CCCCCCC(C)(C)c1ccc(C2CC(=O)C=C(C)C2)c(OCc2ccccc2)c1` (centres undefined), the melting point was 60 to 61 °C. `CCOC(=O)c1cn[nH]c1C(=O)CC(C)C` yielded a melting point of 105 to 107 °C. For the molecule `FC(F)(F)c1cccc(-c2ccnc3c(Cl)cnn23)c1`, the melting point was in the range of 155 to 157 °C. Take `CC#Cc1ccc([C@H]2CC[C@H](CCCCC)CC2)nn1`: the melting point fell in the range of 103 to 104 °C.

`Cc1ccc(C=CCC(CCC(=O)O)(C(=O)C=Cc2ccc(Cl)cc2)c2ccccc2)cc1` (centres undefined): the melting point is 170 to 180 °C.

On to `Nc1cccc(C(=O)CN2CCN(c3ccc(CO)c(Cl)c3)CC2)c1`, for which the melting point lay within 174 to 180 °C.

`O=C1N(Cc2ccncc2)Cc2cccnc2N1c1cccc(Cl)c1` returned a melting point of 132 to 134 °C.

The molecule `CCN(C(=O)OC)C1=CC(=O)CC1` came in with a melting point of 68 to 68.5 °C.

`COCC(=O)NC(CC(=O)Nc1n[nH]c(=S)s1)c1ccccc1` (centres undefined) showed a melting point of 241 to 242 °C. In turn, `CSc1nc(Cl)c2cc(Br)ccc2n1` returned a melting point of 124 °C. As to `Cc1cc(-c2cc3c(OC[C@@H](O)CN4CCC(c5ccc6ccccc6c5)CC4)cccc3o2)nn1C`, the melting point lay within 155 to 157 °C. For the molecule `O=C(O)Cc1ccc(OCCNC(=O)C2Cc3ccccc3N2S(=O)(=O)c2ccc(-c3ccc(Cl)cc3)c(C(F)(F)F)c2)cc1` (centres undefined), the melting point was found to be 92 °C. In the case of `CC(C)CCCC(C)C1CCC2C3=CC=C4CC(O)CC(O)C4(C)C3CCC21C` (centres undefined), the melting point was 155 to 158 °C.

Turning to `O=C(O)c1nccnc1C(=O)Nc1ccc(Cl)cn1`, the melting point amounted to 222 °C. In the case of `COC(=O)c1ccc([N+](=O)[O-])cc1C#CC(C)(C)C` it was 88 to 89 °C. Then `CC(NC(=O)C(C)(C(C)C)C(C)C)c1ccco1` (centres undefined), with 57 to 60 °C; and `COc1c(Cl)ccc(-c2nc(C(=O)OC(C)C)c(I)c(N)c2F)c1F`, with 134 to 135 °C; and `O=C(Nc1ccccc1Oc1ccc(Cl)cc1)C1CCN(C(=O)c2ccccc2)CC1`, with 158 to 160 °C. In turn, `C1=NCc2cncn2-c2ccccc21` yielded a melting point of 150 to 151 °C. In turn, `N#Cc1cnnc2ccccc12` returned a melting point of 140 °C. In the case of `C/C(=C\c1ccc(C(F)(F)F)cc1)C(=O)Nc1cc(Cl)ccc1C(=O)O` it was 228 to 229 °C; in that of `Cc1ccc(N(Cc2cccnc2)S(C)(=O)=O)c(C)c1`, 62 to 65 °C; in that of `CCC(=O)c1ccc2cc(OC(C)C)ccc2c1`, 79 to 80 °C.

Consider `NC(=O)C(c1ccc(C(=O)O)cc1)C(CCc1ccccc1)c1ccccc1N1CCCCC1` (centres undefined), for which the melting point lay within 167 to 170 °C. The molecule `CCCn1c(=O)c2c(nc(CO)n2C)n(CCC)c1=O` had a melting point of 111 to 112 °C. Then `COc1ccc(-c2cc(=O)n(Cc3ccc(Cl)cc3Cl)nc2-c2ccc(OC)cc2)cc1`, with 141 °C; and `CC(C)(C)OC(=O)NCCNC(=O)c1cccc(Cl)n1`, with 114 to 115 °C; and `Cc1nc2c3c(c(C(=O)N4CCOCC4)cc2n1C)CCC1(Cc2ccccc2C1)N3`, with 284 to 285 °C. With `Nc1c([N+](=O)[O-])cc(Br)c2c1CN(Cc1ccccc1)CC2`, the melting point fell in the range of 150 to 152 °C.

In turn, `CC(C)(C)OC(=O)NCC1(CC(N)=O)CCCCC1` gave a melting point of 123 to 125 °C. Then `CCOC(=O)C1=C(C)Nc2ccnc(OC(C)C)c2C1c1ccccc1Cl` (centres undefined), with 135 to 136 °C; and `NC(=NO)c1ncn2c1nc(N1CCOCC1)c1ccccc12`, with 212 to 213 °C.

In the case of `Nc1nc2c(ncn2C2C=CC(CO)O2)c(=O)[nH]1` (centres undefined), the melting point is > 250 °C. In the case of `COc1ccccc1CNc1ccc2cc(Nc3nc(C)cc(C)n3)ccc2n1`, the melting point is 158 °C. Molecule `CC(C)(C)c1cc(SCc2nc3cccnc3[nH]2)cc(C(C)(C)C)c1O` had a melting point of 241 to 242 °C.
